Experimental data published in article PMC3720860, “Molecular and Functional Characterization of Odorant-Binding Protein Genes in an Invasive Vector Mosquito, Aedes albopictus” (PLoS ONE, 2013).

Key:
Format in all cases: binding
AalbOBP39 [1] = molecular target: T1, AalbOBP39 (Aedes albopictus, UniProt M4W733); assay: 1-NPN competitive fluorescence displacement; conditions: 20 mM sodium acetate, pH 7.4, 25 C; 25 ug/ml protein; ligand 6.4-19.2 uM; 30.4 uM 1-NPN
T1 construct: 6xHis-tag fusion, pET-22b(+), E. coli BL21 (DE3); Ni-NTA and gel filtration
T1 sequence (M4W733 19-143): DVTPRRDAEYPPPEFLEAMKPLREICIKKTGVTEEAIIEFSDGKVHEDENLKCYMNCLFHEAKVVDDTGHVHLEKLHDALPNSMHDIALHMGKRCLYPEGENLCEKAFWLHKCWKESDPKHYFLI

AalbOBP37 [2] = molecular target: T2, AalbOBP37 (Aedes albopictus, UniProt M4VP05); assay: 1-NPN competitive fluorescence displacement; conditions: 20 mM sodium acetate, pH 7.4, 25 C; 25 ug/ml protein; ligand 6.4-19.2 uM; 32 uM 1-NPN
T2 construct: 6xHis-tag fusion, pET-22b(+), E. coli BL21 (DE3); Ni-NTA and gel filtration
T2 sequence (M4VP05 19-149 limits assumed): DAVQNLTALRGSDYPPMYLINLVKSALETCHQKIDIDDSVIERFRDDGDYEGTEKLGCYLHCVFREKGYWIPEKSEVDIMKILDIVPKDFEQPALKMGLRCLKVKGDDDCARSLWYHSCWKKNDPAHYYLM

AalbOBP37 [3] = molecular target: T2, AalbOBP37; assay: direct fluorescence titration; conditions: 20 mM sodium acetate, pH 7.4, 25 C; 25 ug/ml protein; excitation 337 nm; reporter ligand
AalbOBP39 [4] = molecular target: T1, AalbOBP39; assay: direct fluorescence titration; conditions: 20 mM sodium acetate, pH 7.4, 25 C; 25 ug/ml protein; excitation 337 nm; reporter ligand

| SMILES | normalized 1-NPN fluorescence (AalbOBP39 [1]) | normalized 1-NPN fluorescence (AalbOBP37 [2]) | direct fluorescence titration (AalbOBP37 [3]) | direct fluorescence titration (AalbOBP39 [4]) |
| --- | --- | --- | --- | --- |
| CCN(CC)C(=O)c1cccc(C)c1 [DEET] | AalbOBP39 showed relatively low affinity to DEET and 1-octen-3-ol | AalbOBP37 showed high affinity to DEET and 1-octen-3-ol |  |  |
| c1ccc2[nH]ccc2c1 [indole] | AalbOBP37 and AalbOBP39 exhibited relatively strong binding to both indole and skatole | AalbOBP37 and AalbOBP39 exhibited relatively strong binding to both indole and skatole |  |  |
| c1ccc(Nc2cccc3ccccc23)cc1 [N-phenyl-1-naphthylamine] |  |  | only target OBPs could bind 1-NPN, which showed increasing fluorescent intensity | only target OBPs could bind 1-NPN, which showed increasing fluorescent intensity |
| C=CC(O)CCCCC (stereo not shown) [1-octen-3-ol] | AalbOBP39 showed relatively low affinity to DEET and 1-octen-3-ol | AalbOBP37 showed high affinity to DEET and 1-octen-3-ol |  |  |
| Cc1c[nH]c2ccccc12 [skatole] | AalbOBP37 and AalbOBP39 exhibited relatively strong binding to both indole and skatole | AalbOBP37 and AalbOBP39 exhibited relatively strong binding to both indole and skatole |  |  |
